One experiment concerns J774 cells. Kind of experiment: Cell viability, MTS-assay. The class given is cell-based. The procedure:
(§1) Cell viability assays. Cells were plated on 96-well plates at the density of 1×10^3 cells in 100 μl per well in normal culture medium, with or without of the indicated concentrations of the various bisphosphonate combinations and or 1 mM CaCl2, 1 mM EGTA or vehicle and cultured for 48 h. Cell viability was assessed with 3-(4,5-dimethylthiazol-2-yl)-5-(3-carboxy tetrazolium, inner salt (MTS)-assays (CellTiter Aqueous One 96 from Promega; Madison, Wis.) according to the manufacturer's instructions. For each treatment, a PBS-control group was run simultaneously on the same plate. The results for each treatment were calculated as % of the corresponding PBS-group.

Experiment [1] deals with AB12 cells. The experiment is described as follows: Subcutaneous mouse mesothelioma model, tumor volume. Conditions: AB12 s.c. in BALB/c mice; risedronate 15 mg/kg (P<0.02), zoledronate 0.5 mg/kg (P<0.003); every six days, 4 treatments from day 10. Format: in vivo. The procedure: (§2) In vivo mesothelioma models. Female BALB/c mice, four to eight weeks of age, were obtained from the National Cancer Institute-Frederick Cancer Research Facility (Frederick, Md.) and were housed in the Pathogen-Free Rodent Shared Facility (Comprehensive Cancer Center, University of Alabama at Birmingham). All animal procedures were performed, in accordance with recommendations for the proper care and use of laboratory animals and were approved by the local IACUC. Subcutaneous (s.c.) and intraperitoneal (i.p.) mouse mesothelioma models were evaluated. In the s.c. model, 3×10^6 AB12 cells were first injected s.c. into cohorts of BALB/c mice. Treatments with i.p. BPs or vehicle were started when tumors became palpable on day 10 and continued every six days for a total of 4 treatments. Tumor size was measured bidimensionally with calipers every two to three days and tumor volume calculated by the formula (length×width^2)÷2. Mice were euthanized before tumors reached the size of 2000 mm^3. In the i.p. model, AC29 or AB12 cells (5×10^5/0.5 ml) were injected i.p, into cohorts of 10-12 BALB/c using a 26-gauge needle. Treatment was initiated 6 days after tumor inoculation and the mice were followed for survival. In the i.p. model risedronate (15 mg/kg), zoledronate (0.5 mg/kg) or PBS were administered i.p. three times a week for two weeks.

Experiment [2] has as its system AB12 cells. Kind of experiment: Intraperitoneal mouse mesothelioma model, survival. Format: in vivo, BALB/c mice. Conditions: AB12 i.p. The procedure: as §2
Another experiment deals with AB-12 cells. Kind of experiment: Cell viability, MTS-assay. The class given is cell-based, mouse. The method, then:
as §1

Experiment [3] deals with unprenylated Rap1A in AB12 cells. Kind of experiment: Western blot, accumulation of unprenylated Rap1A (Example 1). The class given is cell-based, mouse. The procedure: (§3) Western blotting. AB12 and AC29 cells were plated on 6-well plates in normal culture medium until near confluency. The cells were then rinsed with sterile PBS and cultured for further 24 h in serum-free culture medium, in the presence or absence of 2×10^−4-10^−5 M risedronate, zoledronate or PBS control, with or without 25 μM geranylgeraniol, or the same volume of ethanol as a vehicle control. Culture medium was discarded and the cells were harvested in lysis buffer (20 mM Tris pH 7.4, 150 mM NaCl, 1 mM EDTA, 1 mM EGTA, 1% Triton, 2.5 mM sodium pyrophosphate, 1 mM β-glycerolphosphate, 1 mM Na3VO4, 1 μg/ml leupeptin (Cell Signaling Technology, Inc.; Danvers, Mass.)) and clarified by centrifugation. After boiling the supernatants in reducing SDS sample buffer, equal amounts of protein (˜50 μg) were loaded per lane and the samples were electrophoresed on 10% polyacrylamide SDS gel and transferred to a nitrocellulose membrane. Unprenylated Rap1A was detected with the antibody SC-1482 and total Rap1 (both prenylated and unprenylated forms of both Rap1A and Rap1B) was detected with the antibody SC-65 (Santa Cruz Biotechnology, Inc.; Santa Cruz, Calif.), according to the manufacturer's recommendations. The phosphorylation status of p38 was studied with anti-phospho-p38 and anti-total p38 antibodies (Cell Signaling Technology, Inc.), as recommended by the manufacturer. The protein bands were visualized by chemiluminescence using SuperSignal West Pico ECL kit (Pierce; Rockford, Ill.).

For experiment [4], the system named is unprenylated Rap1A in AC29 cells. The experiment is described as above. Format: cell-based, mouse. The method, then: as §3
In another experiment the test system is MDA-MB-231 cells. Kind of experiment: Cell viability, MTS-assay. The class given is cell-based, human. The method, then:
as §1

The subject of experiment [5] is p38 phosphorylation in AB12 cells. Kind of experiment: Western blot, phosphorylation of p38 (Example 1). Format: cell-based, mouse. Conditions: 24 h. The procedure: as §3, with “The protein bands were visualized by chemiluminescence using SuperSignal West Pico ECL kit (Pierce; Rockford, Ill.).” left out
Experiment [6] deals with p38 phosphorylation in AC29 cells. Kind of experiment: Western blot, phosphorylation of p38 (Example 1). Format: cell-based, mouse. Conditions: 24 h. The procedure:
as §3, with “The protein bands were visualized by chemiluminescence using SuperSignal West Pico ECL kit (Pierce; Rockford, Ill.).” left out
On the technique in general: Immunoblotting shows a protein as a band on a membrane.

[7] abbreviates: N-BP 10^−4 M + clodronate 10^−3 M.
Setting [8] is: N-BP 10^−4 M + etidronate 10^−3 M.
[9] abbreviates: 1 mM CaCl2, N-BP 10^−4 M or p-BP 10^−3 M.

SMILES strings stand for the structures.

For `O=P(O)(O)C(O)(Cc1cccnc1)P(=O)(O)O` [risedronate], the “effect of added EGTA on the bisphosphonate's growth inhibitory effect” value in the experiment with J774 cells (1 mM EGTA, N-BP 10^−4 M or clodronate 10^−3 M) is “reversed”; with AB-12 cells (1 mM EGTA, N-BP 10^−4 M), “enhanced”. Besides, the cell viability entry in the experiment with J774 cells (10^−4 M) is “significantly decreased cellular viability”. For the same molecule, the “effect of excess clodronate on the viability change induced by the nitrogen-containing bisphosphonate” value is given as “significantly reversed” in the experiment on J774 cells (setting [7]); “decreased slightly, but significantly cell viability” in the experiment with AB-12 cells (setting [7]); “did not interfere” in the experiment with MDA-MB-231 cells (setting [7]). Also, the “effect of excess etidronate on the viability change induced by the nitrogen-containing bisphosphonate” value is “reversed” in the experiment with J774 cells (setting [8]), “decreased cell viability” in the experiment on AB-12 cells (setting [8]) and “increased” in the experiment with MDA-MB-231 cells (setting [8]). Also, in the experiment with AB12 cells [1], the subcutaneous tumor growth result is recorded as “inhibited subcutaneous tumor growth”. Further, in the experiment with AB12 cells [2] (groups of 12 mice, risedronate 15 mg/kg i.p.), the “long-term (> 60 days) survivors” value is on record as “three”. The molecule further registered a median survival in the experiment with AB12 cells [2] (zoledronate 0.5 mg/kg or risedronate 15 mg/kg i.p. three times a week for two weeks, PBS 26 days) of 30 days. The “effect of added Ca2+ on the bisphosphonate's growth inhibitory effect” value in the experiment on AB-12 cells (setting [9]) and with MDA-MB-231 cells (setting [9]) was “enhanced” each time. Moreover, the “accumulation of unprenylated Rap1A” value is recorded as “dose-dependent accumulation” in experiment [3] (24 h, 2×10^−4-2×10^−6 M) and “dose-dependent accumulation” in experiment [4] (24 h, 2×10^−4-2×10^−6 M). The “reversal of BP-induced accumulation of unprenylated Rap1A by geranylgeraniol” value in [3] (with 25 μM geranylgeraniol) and in [4] (with 25 μM geranylgeraniol) was “almost completely reversed” throughout. Moreover, the p38 phosphorylation entry in [5] and in [6] was “dose-dependent increase” in each case.

Values taken from patent US20090075941A1, “TREATING NEOPLASMS” (THE UAB RESEARCH FOUNDATION, priority 2006, published 2009).
